Measured values taken from ChEMBL document CHEMBL3758085, “Synthesis and cytotoxicity of thieno[2,3-b]quinoline-2-carboxamide and cycloalkyl[b]thieno[3,2-e]pyridine-2-carboxamide derivatives” (Bioorg Med Chem, 2016).
Calls of active or inactive are those of the source. No cut-off for these calls is given here.

Legend:
MDA-MB-231 [1] = assay: Antiproliferative activity against human MDA-MB-231 cells assessed as cell growth incubated for 3 days by 3H-thymidine incorporation assay relative to control; type: functional, cell-based
MDA-MB-468 [2] = assay: Antiproliferative activity against human MDA-MB-468 cells assessed as cell growth incubated for 3 days by 3H-thymidine incorporation assay relative to control; type: functional, cell-based
MDA-MB-468 [3] = assay: Antiproliferative activity against human MDA-MB-468 cells assessed as cell growth at 1 uM incubated for 3 days by 3H-thymidine incorporation assay relative to control; type: functional; conditions: read-out: Activity
K562 = assay: Antiproliferative activity against human K562 cells assessed as cell growth incubated for 3 days by 3H-thymidine incorporation assay relative to control; type: functional, cell-based
MDA-MB-231 [4] = assay: Antiproliferative activity against human MDA-MB-231 cells assessed as cell growth at 1 uM incubated for 3 days by 3H-thymidine incorporation assay relative to control; type: functional; conditions: read-out: Activity
[5] = Antiproliferative activity against human HCT116 cells assessed as cell growth at 1 uM incubated for 3 days by 3H-thymidine incorporation assay relative to control; type: functional; conditions: HCT-116, read-out: Activity
[6] = Antiproliferative activity against human HCT116 cells assessed as cell growth incubated for 3 days by 3H-thymidine incorporation assay relative to control; type: functional, cell-based; conditions: HCT-116
Staphylococcus aureus = assay: Antibacterial activity against Staphylococcus aureus at 1 to 10 mg/ml incubated overnight by agar diffusion method; type: functional, organism-based
Escherichia coli = assay: Antibacterial activity against Escherichia coli DH5[alpha] at 1 to 10 mg/ml incubated overnight by agar diffusion method; type: functional, organism-based
Pseudomonas aeruginosa = assay: Antibacterial activity against Pseudomonas aeruginosa at 1 to 10 mg/ml incubated overnight by agar diffusion method; type: functional, organism-based

Row | IC50 (MDA-MB-231 [1]) [nM] | IC50 (MDA-MB-468 [2]) [nM] | IC50 (K562) [nM] | Structure (SMILES) | growth at 1 µM (MDA-MB-468 [3]) [%] | growth at 1 µM (MDA-MB-231 [4]) [%] | growth at 1 µM [5] [%] | IC50 [6] [nM] | Activity (Staphylococcus aureus) | Activity (Escherichia coli) | Activity (Pseudomonas aeruginosa)
1 | 617 | 407 | 526 | Nc1c(C(=O)Nc2ccccc2)sc2nc3c(cc12)CCCC3 | 8 | 22 | 5 | 594 |  |  | 
2 | 221 | 134 | 153 | Cc1c(Cl)cccc1NC(=O)c1sc2nc3c(cc2c1N)CCCC3 | 6 | 15 | 3 | 191 | inactive | inactive | inactive
3 | 233 | 185 | 185 | Cc1c(Br)cccc1NC(=O)c1sc2nc3c(cc2c1N)CCCC3 | 3 | 5 | 5 | 207 |  |  | 
4 |  |  |  | COc1cccc(NC(=O)c2sc3nc4c(cc3c2N)CCC4)c1 | 63 | 95 | 92 |  | inactive | inactive | inactive
5 | 587 | 372 | 562 | Nc1c(C(=O)Nc2ccccc2F)sc2nc3c(cc12)CCCCCC3 | 5 | 24 | 5 | 599 |  |  | 
6 | 593 | 546 | 197 | Cc1c(Cl)cccc1NC(=O)c1sc2nc3c(cc2c1N)CCC3 | 4 | 11 | 3 | 218 |  |  | 
7 | 198 | 199 | 223 | Cc1c(Br)cccc1NC(=O)c1sc2nc3c(cc2c1N)CCCCC3 | 3 | 12 | 8 | 442 |  |  | 
8 | 508 | 383 | 570 | Nc1c(C(=O)Nc2ccccc2)sc2nc3c(cc12)CCCCC3 | 5 | 26 | 6 | 606 |  |  | 
9 | 672 | 528 | 575 | Nc1c(C(=O)Nc2ccccc2F)sc2nc3c(cc12)CCCCC3 | 11 | 46 | 15 | 798 |  |  | 
10 |  |  |  | Nc1c(C(=O)Nc2ccccc2Cl)sc2nc3c(cc12)CCCC3 | 95 | 119 | 94 |  | inactive | inactive | inactive
11 | 198 | 121 | 167 | Cc1cccc(NC(=O)c2sc3nc4c(cc3c2N)CCCCC4)c1C | 4 | 6 | 6 | 204 |  |  | 
12 | 524 | 391 | 580 | COc1cccc(NC(=O)c2sc3nc4c(cc3c2N)CCCCC4)c1 | 3 | 19 | 6 | 601 |  |  | 
13 | 632 | 398 | 554 | Nc1c(C(=O)Nc2cccc(F)c2)sc2nc3c(cc12)CCCC3 | 11 | 30 | 11 | 563 |  |  | 
14 | 170 | 83 | 83 | Cc1cccc(NC(=O)c2sc3nc4c(cc3c2N)CCCCCC4)c1C | 4 | 3 | 6 | 183 |  |  | 
15 | 448 | 351 | 558 | Nc1c(C(=O)Nc2cccc(F)c2)sc2nc3c(cc12)CCCCC3 | 10 | 28 | 29 | 543 |  |  | 
16 | 84 | 79 | 83 | Cc1c(Br)cccc1NC(=O)c1sc2nc3c(cc2c1N)CCC3 | 5 | 16 | 5 | 161 |  |  | 
17 | 854 | 447 | 576 | Nc1c(C(=O)Nc2cccc3ccccc23)sc2nc3c(cc12)CCCC3 | 8 | 60 | 37 | 720 | inactive | inactive | inactive
18 |  |  |  | Nc1c(C(=O)Nc2cccc(Cl)c2)sc2nc3c(cc12)CCCC3 | 58 | 98 | 80 |  | inactive | inactive | inactive
